Source: PubChem BioAssay (NCI)
Values joined by “and” are separate entries in the source; they are usually repeats but may differ in a detail not shown here. Equal values may be shown once.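 Protocol summary: plate cells (96-well), add compound at 5 concentrations, incubate 48 h, interpolate endpoints linearly. GI50: concentration for 50% inhibition of growth. At the TGI there is no net growth.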

What was measured:
Test in all cases: NCI tumour cell line growth inhibition, 48 h
ACHN renal = system: ACHN renal
HOP-62 NSCLC = system: HOP-62 NSCLC
HT29 colon = system: HT29 colon
MOLT-4 leukemia = system: MOLT-4 leukemia
NCI-H23 lung = system: NCI-H23 lung
NCI-H522 lung = system: NCI-H522 lung
RPMI-8226 leukemia = system: RPMI-8226 leukemia
SF-295 CNS = system: SF-295 CNS
SW-620 colon = system: SW-620 colon
TK-10 renal = system: TK-10 renal

Row | Structure (SMILES) | GI50 (ACHN renal) | TGI (ACHN renal) | GI50 (HOP-62 NSCLC) | TGI (HOP-62 NSCLC) | GI50 (HT29 colon) | TGI (HT29 colon) | GI50 (MOLT-4 leukemia) | TGI (MOLT-4 leukemia) | GI50 (NCI-H23 lung) | TGI (NCI-H23 lung) | GI50 (NCI-H522 lung) [nM] | TGI (NCI-H522 lung) | GI50 (RPMI-8226 leukemia) [nM] | TGI (RPMI-8226 leukemia) | GI50 (SF-295 CNS) | TGI (SF-295 CNS) | GI50 (SW-620 colon) | TGI (SW-620 colon) | GI50 (TK-10 renal) | TGI (TK-10 renal)
1 | COc1ccc2c(c1)/C(=C\c1c(C)nc3sc(C)cn13)C(=O)N2C | 4820 nM | 62.7 µM | 20500 nM | > 100 µM | 3270 nM | 19.2 µM | 3760 nM | > 100 µM | 8040 nM | 35.3 µM | 2540 | 8.44 µM | 4750 | > 100 µM | 2250 nM | 6.88 µM | 3250 nM | 18 µM | 4350 nM | 37.8 µM
2 | Cc1ccc(CNc2c3ccccc3nc3ccccc23)cc1 | 1630 nM | 3.95 µM | 3580 nM | 16.8 µM | 2080 nM | 10.7 µM | 2850 nM | 10.5 µM | 1590 nM | 4.04 µM | 1670 | 4.75 µM | 1480 | 3.86 µM | 2530 nM | 8.87 µM | 1620 nM | 5.32 µM | 2970 nM | 12.6 µM
3 | C[C@@H]1C[C@@H](O)[C@]2(O)O[C@@H]3C[C@@]4(C=O)[C@@H](CC[C@@H]5[C@@H]4CC[C@]4(C)[C@@H](C6=CC(=O)OC6)CC[C@]54O)C[C@H]3O[C@@H]2O1 | 6.92 nM and 5 nM | – | 14.3 nM and 5 nM | 0.0576 µM and 0.067 µM and 0.0709 µM | 53.4 nM and 14.1 nM | 0.0734 µM and 0.198 µM and 0.0745 µM | 6.99 nM and 5 nM | – | 28.2 nM and 5 nM | – | 7.51 | – | – | 0.0752 µM | 36.5 nM and 8.69 nM | 0.0616 µM and 0.189 µM and 0.139 µM | 52.5 nM and 11.1 nM | 0.0591 µM and 0.221 µM and 0.164 µM | 20.2 nM and 5 nM | 0.098 µM and 0.0775 µM and 0.0558 µM
4 | O=C(CCCCCCSc1nc(-c2ccccc2)cc(-c2ccc(Cl)cc2)n1)NO | 1580 nM | 3.64 µM | 1960 nM | 5.24 µM | 2050 nM | 11.4 µM | 557 nM | 4.26 µM | 1880 nM | 5.13 µM | 1130 | 8.05 µM | 640 | 6.19 µM | 2450 nM | 6.7 µM | 1480 nM | 10.4 µM | 2780 nM | 13.5 µM
5 | COc1ccc(C(=O)/C(Br)=C/C(=O)O)cc1 | 78800 nM | 293 µM and 235 µM | 24100 nM | 58.3 µM and 50.3 µM | 59400 nM | 658 µM and 491 µM | 21000 nM | 98.5 µM and 86.5 µM | 21300 nM | 112 µM and 205 µM | 13300 | 50.4 µM and 22.9 µM | 7570 | 110 µM and 78.6 µM | 33500 nM | 175 µM and 140 µM | 19200 nM and 24700 nM | 63.6 µM and 145 µM | 113000 nM | 167 µM and 285 µM
6 | O=C(CNc1nncs1)NO | – | > 100 µM | – | > 100 µM | – | > 100 µM | – | > 100 µM | – | > 100 µM | – | > 100 µM | – | > 100 µM | – | > 100 µM | – | > 100 µM | – | > 100 µM
7 | COc1nc(N(C)O)nc(N(C)O)n1 | 625 nM | > 100 µM | 442 nM | 6.3 µM | 1030 nM | > 100 µM | 885 nM | > 100 µM | 2140 nM | > 100 µM | 2530 | > 100 µM | 1320 | > 100 µM | 2200 nM | 9.69 µM | 2570 nM | > 100 µM | 1970 nM | > 100 µM
8 | C=CCn1c2c(c3ccccc3c1=O)C(=O)c1ccccc1-2 | – | > 100 µM | – | > 100 µM | – | > 100 µM | – | 16.8 µM | – | > 100 µM | – | > 100 µM | – | > 100 µM | – | > 100 µM | – | > 100 µM | – | > 100 µM
9 | COc1cc(/C(C#N)=C/c2ccc3c(c2OC)OCO3)cc2c1OCO2 | 2430 nM | > 58.9 µM | 138 nM | 14.3 µM | 37.9 nM | 1.04 µM | 111 nM | 19.9 µM | 162 nM | 11.6 µM | 32.4 | 0.283 µM | 146 | 33.2 µM | 42.8 nM | 4.36 µM | 41.2 nM | > 100 µM | 982 nM | 37.2 µM
10 | Cc1ncc(CN=Cc2ccc(Cl)cc2)c(N)n1 | – | > 100 µM | – | > 100 µM | – | > 100 µM | – | > 100 µM | – | > 100 µM | – | > 100 µM | – | > 100 µM | – | > 100 µM | – | > 100 µM | – | > 100 µM
11 | CN1CCN(CN2C(=O)C3C4C=CC(C3C2=O)C2C3C(=O)N(CN5CCN(C)CC5)C(=O)C3C42)CC1 (stereo unspecified) | – | 73.6 µM and > 61.3 µM and 48.5 µM | – | > 100 µM | – | > 100 µM | – | 60.6 µM and 51.3 µM and 55.9 µM | – | 43.9 µM and 39.6 µM and 75.2 µM | – | 39.6 µM and 25.4 µM | – | 59.2 µM and 53.2 µM and 71.5 µM | 32200 nM and 86200 nM and 49200 nM | 97.4 µM and > 100 µM | – | 43.2 µM and > 60.8 µM and 35.1 µM | – | > 100 µM
12 | CC(=O)Nc1ccc2c(c1)c(C1=C(c3cn(C)c4ccccc34)C(=O)NC1=O)cn2C | 1570 nM | > 25 µM | 1980 nM | > 25 µM | 925 nM | > 25 µM | 2400 nM | 13.8 µM | 5450 nM | > 25 µM | 702 | > 6.59 µM | 1220 | > 22.1 µM | 1180 nM | > 25 µM | 1020 nM | > 25 µM | 4210 nM | > 25 µM
13 | Cc1nc2c(nc1C)C(=O)c1cc(O)ccc1C2=O | – | > 100 µM | – | > 100 µM | – | > 87.2 µM | – | > 100 µM | – | > 100 µM | – | > 100 µM | – | > 79.7 µM | – | > 100 µM | – | > 100 µM | – | > 100 µM
14 | CCOc1ccccc1NC(=O)C(=O)CC(=O)c1c(C)n([O-])c2ccccc2[n+]1=O | – | > 100 µM | – | > 100 µM | – | > 100 µM | – | > 100 µM | – | > 100 µM | – | > 100 µM | – | > 100 µM | – | > 100 µM | – | > 100 µM | – | > 100 µM
15 | O=[N+]([O-])C1C(c2ccccc2)C12c1ccccc1-c1ccccc12 (stereo unspecified) | 1470 nM | 19.1 µM | 573 nM | 17.6 µM | 349 nM | 15.5 µM | 746 nM | > 26.3 µM | 2060 nM | > 47.2 µM | 680 | 13 µM | 322 | 1.51 µM | 598 nM | 43.9 µM | 424 nM | 8.2 µM | 2000 nM | 16.6 µM
16 | C=C1CC2(OC1=O)C(=O)N(CCCCCCCN1C(=O)C3(CC(=C)C(=O)O3)c3ccccc31)c1ccccc12 (stereo unspecified) | 1130 nM | 3.07 µM | 6800 nM | 15.4 µM | 1490 nM | 5.4 µM | 267 nM | 5.53 µM | 3710 nM | 11.6 µM | 820 | 1.85 µM | 841 | 3.33 µM | 10200 nM | 25 µM | 938 nM | 2.21 µM | 2190 nM | 8.32 µM
17 | COc1cc(-c2nn(-c3ccc(NC(=O)c4ccc(Cl)c(Cl)c4)cc3)cc2-c2ccncc2)ccc1Cl | 8060 nM | > 100 µM | 2280 nM | 7.51 µM | 2900 nM | > 100 µM | 5290 nM | > 100 µM | 38400 nM | > 100 µM | > 100000 | > 100 µM | 3030 | 14.1 µM | 1940 nM | 4.57 µM | 5630 nM | > 100 µM | > 100000 nM | > 100 µM
18 | CC(=O)O/C=C(/C=C/OC(C)=O)C(C/C=C(\C)C#CC=C(C)C)OC(C)=O (stereo unspecified) | – | > 100 µM | – | > 100 µM | – | > 100 µM | – | > 100 µM | – | > 100 µM | – | 73.7 µM | – | > 100 µM | – | > 100 µM | – | > 100 µM | – | > 100 µM
19 | Cc1cc(-c2ncc(CC(=O)Nc3ccc(-c4cnccn4)cn3)cc2C)ccn1 | 31500 nM | > 100 µM | 33500 nM | > 100 µM | 57800 nM | > 100 µM | 23900 nM | > 100 µM | 23600 nM | > 100 µM | 22700 | > 100 µM | 19200 | > 100 µM | 15300 nM | > 100 µM | 98700 nM | > 100 µM | 16400 nM | > 100 µM
20 | CC(=O)C1CC(C)=CCC12C(=O)Nc1ccccc12 (stereo unspecified) | – | > 100 µM | – | > 100 µM | – | > 100 µM | – | > 100 µM | – | > 100 µM | – | > 100 µM | – | > 100 µM | – | > 100 µM | – | > 100 µM | – | > 100 µM
21 | CCOC(=O)c1ccc(NC(=O)N2CC(C)OC(C)C2)cc1 (stereo unspecified) | > 100000 nM | > 100 µM | > 100000 nM | > 100 µM | > 100000 nM | > 100 µM | > 100000 nM | > 100 µM | > 100000 nM | > 100 µM | > 100000 | > 100 µM | > 100000 | > 100 µM | > 100000 nM | > 100 µM | > 100000 nM | > 100 µM | > 100000 nM | > 100 µM
